Reference: ChEMBL document CHEMBL1201862, “PubChem BioAssay data set” (2004)
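Interpolation was linear, between the two tested concentrations surrounding the appropriate level; five concentrations were tested over 48 hours in 96-well plates. GI50 = concentration required for 50% inhibition of growth.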 Activity calls are given as the source filed them. Cut-off read from the data, not from the text of the source: active = GI50 up to about 1.1 µM and inactive = higher.

Experiments:
Assay in all cases: NCI tumour cell line growth inhibition, 48 h
[1] = tested on: HL-60
[2] = tested on: SK-OV-3
[3] = tested on: OVCAR-3
[4] = tested on: Malme-3M
[5] = tested on: SK-MEL-2
[6] = tested on: OVCAR-5
[7] = tested on: KM12
[8] = tested on: NCI/ADR-RES
[9] = tested on: DU-145
[10] = tested on: A549
[11] = tested on: SK-MEL-5
[12] = tested on: SW-620
[13] = tested on: M14
[14] = tested on: UACC-62
[15] = tested on: RPMI-8226
[16] = tested on: UACC-257
[17] = tested on: HOP-62
[18] = tested on: OVCAR-8
[19] = tested on: MDA-N
[20] = tested on: SF-539

Row | SMILES | GI50 [1] | GI50 [2] | GI50 [3] | GI50 [4] | GI50 [5] | GI50 [6] | GI50 [7] | GI50 [8] | GI50 [9] | GI50 [10] | GI50 [11] | GI50 [12] | GI50 [13] | GI50 [14] | GI50 [15] | GI50 [16] | GI50 [17] | GI50 [18] | GI50 [19] | GI50 [20]
1 | COc1cccc(Cc2cc(=O)c3ccc(C)nc3[nH]2)c1 | 55.5 µM (inactive) | > 100 µM (inactive) | > 100 µM (inactive) | 57.7 µM (inactive) | > 100 µM (inactive) | > 100 µM (inactive) | > 100 µM (inactive) | > 100 µM (inactive) | > 100 µM (inactive) | > 100 µM (inactive) | > 100 µM (inactive) | > 100 µM (inactive) | > 100 µM (inactive) | > 100 µM (inactive) | 48.6 µM (inactive) | > 100 µM (inactive) | > 100 µM (inactive) | > 100 µM (inactive) | > 100 µM (inactive) | 
2 | O=C1CC2CC(CC3(CO3)C2)C1F (stereo unspecified) | > 100 µM (inactive) | > 100 µM (inactive) |  | > 100 µM (inactive) | > 100 µM (inactive) | > 100 µM (inactive) | > 100 µM (inactive) | > 100 µM (inactive) | > 100 µM (inactive) | > 100 µM (inactive) | > 100 µM (inactive) |  | > 100 µM (inactive) | > 100 µM (inactive) | > 100 µM (inactive) | > 100 µM (inactive) | > 100 µM (inactive) | > 100 µM (inactive) | > 100 µM (inactive) | 
3 | O=C(O)c1c(-c2ccccc2)c(=O)[nH]c2ccccc12 | > 100 µM (inactive) | > 100 µM (inactive) | > 100 µM (inactive) | > 100 µM (inactive) | > 100 µM (inactive) | > 100 µM (inactive) | > 100 µM (inactive) | > 100 µM (inactive) | > 100 µM (inactive) | > 100 µM (inactive) | > 100 µM (inactive) | > 100 µM (inactive) | > 100 µM (inactive) | > 100 µM (inactive) | > 100 µM (inactive) | > 100 µM (inactive) | > 100 µM (inactive) | > 100 µM (inactive) | > 100 µM (inactive) | 
4 | O=c1[nH]c(=O)n(C2CC(O)C(COP(=O)(O)OC3CC(n4cc(F)c(=O)[nH]c4=O)OC3COP(=O)(O)OC3CC(n4cc(F)c(=O)[nH]c4=O)OC3COP(=O)(O)OC3CC(n4cc(F)c(=O)[nH]c4=O)OC3COP(=O)(O)OC3CC(n4cc(F)c(=O)[nH]c4=O)OC3COP(=O)(O)OC3CC(n4cc(F)c(=O)[nH]c4=O)OC3COP(=O)(O)OC3CC(n4cc(F)c(=O)[nH]c4=O)OC3COP(=O)(O)OC3CC(n4cc(F)c(=O)[nH]c4=O)OC3COP(=O)(O)OC3CC(n4cc(F)c(=O)[nH]c4=O)OC3COP(=O)(O)OC3CC(n4cc(F)c(=O)[nH]c4=O)OC3CO)O2)cc1F (stereo unspecified) | 0.0126 µM (active) | 0.226 µM (active) |  |  | 3.07 µM (inactive) |  | 3.59 µM (inactive) | < 0.005 µM (active) | < 0.005 µM (active) | < 0.005 µM (active) | 0.00824 µM (active) | > 50 µM (inactive) | < 0.005 µM (active) | < 0.005 µM (active) | 0.232 µM (active) | 0.578 µM (active) | < 0.005 µM (active) | < 0.005 µM (active) | 0.0685 µM (active) | < 0.005 µM (active)
5 | COC1=Nc2ccccc2S(=O)(=O)C=C1 | 0.195 µM (active) | 45.7 µM (inactive) | 2.78 µM (inactive) | 2.5 µM (inactive) | 16.6 µM (inactive) | 16.9 µM (inactive) | 14.8 µM (inactive) | 13.1 µM (inactive) | 16.8 µM (inactive) | 18.2 µM (inactive) | 11.4 µM (inactive) | 1.73 µM (inactive) | 7.64 µM (inactive) | 17.9 µM (inactive) |  | 7.69 µM (inactive) | 43.3 µM (inactive) | 4.35 µM (inactive) | 7.4 µM (inactive) | 16.7 µM (inactive)
6 | COC1=CC(=O)C2=C(C1=O)[C@H]1CC[C@]3(C)C(=O)CC[C@H]3[C@@H]1CC2 | 2.38 µM (inactive) | > 100 µM (inactive) | 23.3 µM (inactive) |  | 18.7 µM (inactive) | 20.3 µM (inactive) | 36.8 µM (inactive) | 20.1 µM (inactive) | 25.3 µM (inactive) | 45.3 µM (inactive) | 18.5 µM (inactive) | 26.4 µM (inactive) | 30.4 µM (inactive) | 30.1 µM (inactive) | 26.1 µM (inactive) | 22.9 µM (inactive) | 59.8 µM (inactive) | 18.1 µM (inactive) | 25.2 µM (inactive) | 19.6 µM (inactive)
7 | CO[C@H]1O[C@@H]2CO[C@@H](c3ccccc3)O[C@H]2[C@@H]2CC=CCC[C@]12O | 24.8 µM (inactive) | > 100 µM (inactive) | 69.7 µM (inactive) | 12.6 µM (inactive) | 65.5 µM (inactive) | > 100 µM (inactive) | 65.3 µM (inactive) | 44.4 µM (inactive) | > 100 µM (inactive) | 59.8 µM (inactive) | 67.1 µM (inactive) | 54.1 µM (inactive) | 72.6 µM (inactive) | 63.4 µM (inactive) | 23.7 µM (inactive) | 35.6 µM (inactive) | > 100 µM (inactive) | 73.1 µM (inactive) | 50.9 µM (inactive) | 
8 | COc1ccccc1C(=O)NO | > 100 µM (inactive) | > 100 µM (inactive) | > 100 µM (inactive) |  | > 100 µM (inactive) | > 100 µM (inactive) | 39.5 µM (inactive) | > 100 µM (inactive) | > 100 µM (inactive) | > 100 µM (inactive) | > 100 µM (inactive) | > 100 µM (inactive) | > 100 µM (inactive) | > 100 µM (inactive) | > 100 µM (inactive) | > 100 µM (inactive) | > 100 µM (inactive) | > 100 µM (inactive) | > 100 µM (inactive) | 
9 | Clc1ccc(COC(Cn2ccnc2)c2ccc(Cl)cc2Cl)c(Cl)c1 (stereo unspecified) [MICONAZOLE NITRATE] | 3.48 µM (inactive) | 14.3 µM (inactive) | 9.86 µM (inactive) | 12.5 µM (inactive) | 13.1 µM (inactive) | 12.9 µM (inactive) | 13.3 µM (inactive) | 4 µM (inactive) | 13 µM (inactive) | 10.9 µM (inactive) |  | 12.8 µM (inactive) | 10.6 µM (inactive) | 10.2 µM (inactive) |  | 11 µM (inactive) | 13.2 µM (inactive) | 8.39 µM (inactive) | 3.89 µM (inactive) | 14.6 µM (inactive)
10 | COC(c1ccsc1)C(C#N)(C#N)/N=C/c1ccsc1 (stereo unspecified) | 3.18 µM (inactive) | 21.1 µM (inactive) | 12.6 µM (inactive) | 15.3 µM (inactive) | 19 µM (inactive) | 20.9 µM (inactive) | 16.7 µM (inactive) | 17.7 µM (inactive) | 15.2 µM (inactive) | 30.5 µM (inactive) | 13.6 µM (inactive) | 14.6 µM (inactive) | 17.8 µM (inactive) | 15.2 µM (inactive) |  | 14.7 µM (inactive) | 17.4 µM (inactive) | 18.1 µM (inactive) | 16 µM (inactive) | 15.7 µM (inactive)
11 | CC1=NN(c2nc(N)nc(/C(C#N)=C\c3csc([N+](=O)[O-])c3)n2)C(C)(C)C1 | 5.22 µM (inactive) | 42.2 µM (inactive) | 26.4 µM (inactive) |  | 28.9 µM (inactive) | 34.7 µM (inactive) | 57.9 µM (inactive) | 27 µM (inactive) | 33.4 µM (inactive) |  | 30.5 µM (inactive) | 68.7 µM (inactive) | > 100 µM (inactive) |  | 35.6 µM (inactive) | 45.7 µM (inactive) | 26.6 µM (inactive) | 25.1 µM (inactive) | 27.7 µM (inactive) | 27.2 µM (inactive)
12 | Cc1ccc2c(=O)c(-c3n[nH]c(=S)s3)c[nH]c2n1 | > 100 µM (inactive) |  | > 100 µM (inactive) | > 100 µM (inactive) | > 100 µM (inactive) | > 100 µM (inactive) | > 100 µM (inactive) | > 100 µM (inactive) | > 100 µM (inactive) | > 100 µM (inactive) | > 100 µM (inactive) | > 100 µM (inactive) | > 100 µM (inactive) | > 100 µM (inactive) | > 100 µM (inactive) | > 100 µM (inactive) | > 100 µM (inactive) | > 100 µM (inactive) | > 100 µM (inactive) | 
13 | C1CSCCSCCCSC2CCCCC2SC1 (stereo unspecified) | 17.3 µM (inactive) | > 100 µM (inactive) | > 100 µM (inactive) |  |  | > 100 µM (inactive) | > 100 µM (inactive) | 83.9 µM (inactive) | > 100 µM (inactive) | > 100 µM (inactive) | 43.2 µM (inactive) | > 100 µM (inactive) | > 100 µM (inactive) | > 100 µM (inactive) | 45.4 µM (inactive) | > 100 µM (inactive) | > 100 µM (inactive) | > 100 µM (inactive) | > 100 µM (inactive) | > 100 µM (inactive)
14 | COC(=O)C1=C(O)C(C(=O)OC)[C@]2(O)[C@H](C(=O)OC)[C@H]1C[C@@H](c1ccc([N+](=O)[O-])cc1)[C@H]2C(=O)OC (stereo partly specified) | 14.3 µM (inactive) | 27.8 µM (inactive) | 25.1 µM (inactive) | 3.46 µM (inactive) | 18.4 µM (inactive) | 25.2 µM (inactive) | 28 µM (inactive) | 16.4 µM (inactive) | 34.7 µM (inactive) | 21.3 µM (inactive) | 15.3 µM (inactive) | 16.6 µM (inactive) | 15.7 µM (inactive) | 12.4 µM (inactive) |  | 34.1 µM (inactive) | 34.6 µM (inactive) | 17.6 µM (inactive) | 7.91 µM (inactive) | 30.5 µM (inactive)
